Reference: patent US20230002372A1, “AZAINDOLE CARBOXAMIDE COMPOUNDS FOR THE TREATMENT OF MYCOBACTERIAL INFECTIONS” (THE GLOBAL ALLIANCE FOR TB DRUG DEVELOPMENT, INC., priority 2019, published 2023)
In brackets after ≈: the same amount, converted by molar mass.

Test system: M tb H37Rv
Assay: MIC determination against M tb H37Rv (green fluorescent protein reporter assay; MIC-MABA)
Assay type: cell-based, Mycobacterium tuberculosis
Conditions: Mycobacterium tuberculosis, H37RV, 240 h, read-out: M. TB H37Rv: MIC-MABA: MIC, M. tb H37Rv; 7H9 broth; 10 days exposure; MIC = lowest concentration inhibiting fluorescence by 90%

First: CC1(C)CCC(NC(=O)c2cc3c(F)c(F)cnc3[nH]2)CC1 [MPL-063, N-(4,4-dimethylcyclohexyl)-4,5-difluoro-1H-pyrrolo[2,3-b]pyridine-2-carboxamide]
Second: CC1(C)CCC(NC(=O)c2cc3c(F)c(Cl)ncc3[nH]2)CC1 [MPL-139, 5-chloro-N-(4,4-dimethylcyclohexyl)-4-fluoro-1H-pyrrolo[2,3-c]pyridine-2-carboxamide]
The MIC of the first is 1.7-fold lower: 0.14 µg/mL (≈ 0.456 µM) for the first, 0.24 µg/mL (≈ 0.741 µM) for the second.

First: O=C(NC1CC[Si]2(CCCC2)CC1)c1cc2c(F)cncc2[nH]1 [MPL-254, 4-fluoro-N-(5-silaspiro[4.5]decan-8-yl)-1H-pyrrolo[2,3-c]pyridine-2-carboxamide]
Second: Cc1ncc2[nH]c(C(=O)NC3CC[Si]4(CCCC4)CC3)cc2c1F [MPL-319, 4-fluoro-5-methyl-N-(5-silaspiro[4.5]decan-8-yl)-1H-pyrrolo[2,3-c]pyridine-2-carboxamide]
The MIC of the first is 2.5-fold lower: 0.2 µg/mL (≈ 0.603 µM) for the first, 0.499 µg/mL (≈ 1.44 µM) for the second.

Compared with `Cc1nc2[nH]c(C(=O)NC3CCCCCCC3)cc2c(F)c1F` [MPL-290, N-cyclooctyl-4,5-difluoro-6-methyl-1H-pyrrolo[2,3-b]pyridine-2-carboxamide], `Cc1cc(C)c2cc(C(=O)NC3CCCCCCC3)[nH]c2n1` [MPL-041, N-cyclooctyl-4,6-dimethyl-1H-pyrrolo[2,3-b]pyridine-2-carboxamide] is 1700-fold higher in MIC: 0.005 µg/mL (≈ 0.0156 µM) for the first, 8.5 µg/mL (≈ 28.4 µM) for the second.

`CC1(C)CCC(NC(=O)c2cc3c(Cl)cncc3[nH]2)CC1` [MPL-003, 4-chloro-N-(4,4-dimethylcyclohexyl)-1H-pyrrolo[2,3-c]pyridine-2-carboxamide] and `C[Si]1(C)CCC(NC(=O)c2cc3c(Cl)cncc3[nH]2)CC1` [MPL-192, 4-chloro-N-(1,1-dimethylsilinan-4-yl)-1H-pyrrolo[2,3-c]pyridine-2-carboxamide] are within 1.5-fold of each other in MIC: 0.01 µg/mL (≈ 0.0327 µM) for the first, 0.0093 µg/mL (≈ 0.0289 µM) for the second.

`COc1cncc2[nH]c(C(=O)NC3CC[Si](C)(C)CC3)cc12` [MPL-202, N-(1,1-dimethylsilinan-4-yl)-4-methoxy-1H-pyrrolo[2,3-c]pyridine-2-carboxamide] and `COc1ncc2[nH]c(C(=O)NC3CC[Si](C)(C)CC3)cc2c1C(F)(F)F` [MPL-452, N-(1,1-dimethylsilinan-4-yl)-5-methoxy-4-(trifluoromethyl)-1H-pyrrolo[2,3-c]pyridine-2-carboxamide] are within 1.5-fold of each other in MIC: 0.11 µg/mL (≈ 0.346 µM) for the first, 0.118 µg/mL (≈ 0.306 µM) for the second.

`C[C@@H]1[C@@H](NC(=O)c2cc3c(C(F)(F)F)cncc3[nH]2)C[C@H]2C[C@@H]1C2(C)C` [MPL-100, 4-(trifluoromethyl)-N-[(1S,2S,3S,5R)-2,6,6-trimethylnorpinan-3-yl]-1H-pyrrolo[2,3-c]pyridine-2-carboxamide] and `C[C@@H]1[C@@H](NC(=O)c2cc3c(Cl)cncc3[nH]2)C[C@H]2C[C@@H]1C2(C)C` [MPL-006, 4-chloro-N-[(1S,2S,3S,5R)-2,6,6-trimethylnorpinan-3-yl]-1H-pyrrolo[2,3-c]Pyridine-2-carboxamide] are within 1.5-fold of each other in MIC: 0.24 µg/mL (≈ 0.657 µM) for the first, 0.3 µg/mL (≈ 0.904 µM) for the second.

Going from `Cc1nc2[nH]c(C(=O)NC3CCC(C)(C)CC3)cc2c(F)c1Cl` [MPL-069, 5-chloro-N-(4,4-dimethylcyclohexyl)-4-fluoro-6-methyl-1H-pyrrolo[2,3-b]pyridine-2-carboxamide] to `CC1(C)CCC(NC(=O)c2cc3c(C4CC4)ccnc3[nH]2)CC1` [MPL-017, 4-cyclopropyl-N-(4,4-dimethylcyclohexyl)-1H-pyrrolo[2,3-b]pyridine-2-carboxamide], the MIC rises from 0.0099 µg/mL (≈ 0.0293 µM) to 0.72 µg/mL (≈ 2.31 µM) (73-fold).

Compared with `Cc1cc(Cl)c2cc(C(=O)N[C@H]3CC[Si](C)(C)C3)[nH]c2n1` (single isomer, unassigned) [MPL-401B], `Cc1cc(Cl)c2cc(C(=O)NC3CCCC[Si](C)(C)CC3)[nH]c2n1` (stereo not shown) [MPL-275, 4-chloro-N-(1,1-dimethylsilocan-4-yl)-6-methyl-1H-pyrrolo[2,3-b]pyridine-2-carboxamide] is 4.4-fold higher in MIC: 0.007 µg/mL (≈ 0.0217 µM) for the first, 0.031 µg/mL (≈ 0.0852 µM) for the second.

Compared with `C[Si]1(C)CCC(NC(=O)c2cc3ccc(-c4ccccc4)nc3[nH]2)CC1` [MPL-388, N-(1,1-dimethylsilinan-4-yl)-6-phenyl-1H-pyrrolo[2,3-b]pyridine-2-carboxamide], `C[Si]1(C)CCC(NC(=O)c2cc3ccc(-c4cccnc4)nc3[nH]2)CC1` [MPL-389, N-(1,1-dimethylsilinan-4-yl)-6-(3-pyridyl)-1H-pyrrolo[2,3-b]pyridine-2-carboxamide] is 18-fold higher in MIC: 0.012 µg/mL (≈ 0.033 µM) for the first, 0.216 µg/mL (≈ 0.593 µM) for the second.

Going from `Cc1cc(F)c2cc(C(=O)NC3CC[Si](C)(C)CC3)[nH]c2n1` [MPL-207, N-(1,1-dimethylsilinan-4-yl)-4-fluoro-6-methyl-1H-pyrrolo[2,3-b]pyridine-2-carboxamide] to `C[Si]1(C)CCC(NC(=O)c2cc3c(C(F)(F)F)ccnc3[nH]2)CC1` [MPL-111, N-(1,1-dimethylsilinan-4-yl)-4-(trifluoromethyl)-1H-pyrrolo[2,3-b]pyridine-2-carboxamide], the MIC rises from 0.0045 µg/mL (≈ 0.0141 µM) to 0.0095 µg/mL (≈ 0.0267 µM) (2.1-fold).

Going from `COc1ccc2cc(C(=O)NC3CC[Si]4(CCCC4)CC3)[nH]c2n1` [MPL-454, 6-methoxy-N-(5-silaspiro[4.5]decan-8-yl)-1H-pyrrolo[2,3-b]pyridine-2-carboxamide] to `C[Si]1(C)CCC(NC(=O)c2cc3ccc(OC4CCC4)nc3[nH]2)CC1` [MPL-467, 6-(cyclobutoxy)-N-(1,1-dimethylsilinan-4-yl)-1H-pyrrolo[2,3-b]pyridine-2-carboxamide], the MIC falls from 0.458 µg/mL (≈ 1.33 µM) to 0.121 µg/mL (≈ 0.338 µM) (3.8-fold).

Going from `C[C@@H]1[C@@H](NC(=O)c2cc3c(C(F)(F)F)ccnc3[nH]2)C[C@H]2C[C@@H]1C2(C)C` [MPL-015, 4-(trifluoromethyl)-N-[(1S,2S,3S,5R)-2,6,6-trimethylnorpinan-3-yl]-1H-pyrrolo[2,3-b]pyridine-2-carboxamide] to `C[C@@H]1[C@@H](NC(=O)c2cc3c(F)c(F)cnc3[nH]2)C[C@H]2C[C@@H]1C2(C)C` [MPL-062, 4,5-difluoro-N-[(1S,2S,3S,5R)-2,6,6-trimethylnorpinan-3-yl]-1H-pyrrolo[2,3-b]pyridine-2-carboxamide], the MIC rises from 0.044 µg/mL (≈ 0.12 µM) to 0.19 µg/mL (≈ 0.57 µM) (4.3-fold).

Compared with `O=C(NC1CCCCCCC1)c1cc2cc(Cl)c(F)nc2[nH]1` [MPL-065a, 5-chloro-N-cyclooctyl-6-fluoro-1H-pyrrolo[2,3-b]pyridine-2-carboxamide], `O=C(NC1CCCCCCC1)c1cc2c(Cl)ccnc2[nH]1` [MPL-033, 4-chloro-N-cyclooctyl-1H-pyrrolo[2,3-b]pyridine-2-carboxamide] is 2.9-fold higher in MIC: 0.013 µg/mL (≈ 0.0401 µM) for the first, 0.038 µg/mL (≈ 0.124 µM) for the second.

First: CNc1ccnc2[nH]c(C(=O)NC3CCCCCCC3)cc12 [MPL-040, N-cyclooctyl-4-(methylamino)-1H-pyrrolo[2,3-b]pyridine-2-carboxamide]
Second: O=C(NC1CCCCCCC1)c1cc2c(F)ccnc2[nH]1 [MPL-027, N-cyclooctyl-4-fluoro-1H-pyrrolo[2,3-b]pyridine-2-carboxamide]
The MIC of the first is 10-fold higher: 6.2 µg/mL (≈ 20.6 µM) for the first, 0.61 µg/mL (≈ 2.11 µM) for the second.

First: Cc1cc(Cl)c2cc(C(=O)NC3CC[Si]4(CCCCC4)CC3)[nH]c2n1 [MPL-277, 4-chloro-6-methyl-N-(6-silaspiro[5.5]undecan-3-yl)-1H-pyrrolo[2,3-b]pyridine-2-carboxamide]
Second: O=C(NC1CC[Si]2(CCCCC2)CC1)c1cc2c(F)c(Cl)ncc2[nH]1 [MPL-348, 5-chloro-4-fluoro-N-(6-silaspiro[5.5]undecan-3-yl)-1H-pyrrolo[2,3-c]pyridine-2-carboxamide]
The MIC of the first is 9.7-fold lower: 0.045 µg/mL (≈ 0.12 µM) for the first, 0.435 µg/mL (≈ 1.14 µM) for the second.

Compared with `CC1(C)C2CCC1(C)C(NC(=O)c1cc3c(C(F)(F)F)cncc3[nH]1)C2` (stereo not shown) [MPL-190, 4-(trifluoromethyl)-N-(1,7,7-trimethylnorbornan-2-yl)-1H-pyrrolo[2,3-c]pyridine-2-carboxamide], `Cc1cc(Cl)c2cc(C(=O)N[C@H]3C[C@H]4C[C@H](C4(C)C)[C@@]3(C)O)[nH]c2n1` [MPL-218, 4-chloro-N-[(1R,2R,3S,5R)-2-hydroxy-2,6,6-trimethyl-norpinan-3-yl]-6-methyl-1H-pyrrolo[2,3-b]pyridine-2-carboxamide] is 6.5-fold lower in MIC: 0.24 µg/mL (≈ 0.657 µM) for the first, 0.037 µg/mL (≈ 0.102 µM) for the second.

Going from `Cc1c(C(=O)NC2CC[Si](C)(C)CC2)[nH]c2cncc(F)c12` [MPL-226, N-(1,1-dimethylsilinan-4-yl)-4-fluoro-3-methyl-1H-pyrrolo[2,3-c]pyridine-2-carboxamide] to `C[Si]1(C)CCC(NC(=O)c2cc3c(Cl)c(Cl)ncc3[nH]2)CC1` [MPL-349, 4,5-dichloro-N-(1,1-dimethylsilinan-4-yl)-1H-pyrrolo[2,3-c]pyridine-2-carboxamide], the MIC falls from 0.75 µg/mL (≈ 2.35 µM) to 0.068 µg/mL (≈ 0.191 µM) (11-fold).

Compared with `O=C(NC1CC2CCC(C2)C1)c1cc2c(F)ccnc2[nH]1` (stereo not shown) [MPL-157, N-(3-bicyclo[3.2.1]octanyl)-4-fluoro-1H-pyrrolo[2,3-b]pyridine-2-carboxamide], `O=C(NC1CCC2(CCC2)CC1)c1cc2c(F)ccnc2[nH]1` [MPL-002, 4-fluoro-N-spiro[3.5]nonan-7-yl-1H-pyrrolo[2,3-b]pyridine-2-carboxamide] is 46-fold lower in MIC: 2.6 µg/mL (≈ 9.05 µM) for the first, 0.056 µg/mL (≈ 0.186 µM) for the second.

Going from `N#Cc1ccnc2[nH]c(C(=O)NC3CCCCCCC3)cc12` [MPL-036, 4-cyano-N-cyclooctyl-1H-pyrrolo[2,3-b]pyridine-2-carboxamide] to `O=C(NC1CCCCCCC1)c1cc2c(C3CC3)ccnc2[nH]1` [MPL-039, N-cyclooctyl-4-cyclopropyl-1H-pyrrolo[2,3-b]pyridine-2-carboxamide], the MIC rises from 0.08 µg/mL (≈ 0.27 µM) to 0.39 µg/mL (≈ 1.25 µM) (4.9-fold).

First: O=C(NC1CCCCCCC1)c1cc2c(C(F)(F)F)ccnc2[nH]1 [MPL-037, N-cyclooctyl-4-(trifluoromethyl)-1H-pyrrolo[2,3-b]pyridine-2-carboxamide]
Second: O=C(NC1CC[Si]2(CCCC2)CC1)c1cc2c(F)c(C(F)(F)F)ncc2[nH]1 [MPL-367, 4-fluoro-N-(5-silaspiro[4.5]decan-8-yl)-5-(trifluoromethyl)-1H-pyrrolo[2,3-c]pyridine-2-carboxamide]
The MIC of the first is 71-fold lower: 0.014 µg/mL (≈ 0.0413 µM) for the first, 0.988 µg/mL (≈ 2.47 µM) for the second.

First: C[Si]1(C)CCC(NC(=O)c2cc3cc(C(F)(F)F)ncc3[nH]2)CC1 [MPL-321, N-(1,1-dimethylsilinan-4-yl)-5-(trifluoromethyl)-1H-pyrrolo[2,3-c]pyridine-2-carboxamide]
Second: O=C(NC12CCC(CC1)CC2)c1cc2c(Cl)cncc2[nH]1 [MPL-170, N-(4-bicyclo[2.2.2]octanyl)-4-chloro-1H-pyrrolo[2,3-c]pyridine-2-carboxamide]
The MIC of the first is 5.2-fold higher: 0.519 µg/mL (≈ 1.46 µM) for the first, 0.1 µg/mL (≈ 0.329 µM) for the second.

`Cc1c(C(=O)N[C@H]2C[C@H]3C[C@@H]([C@@H]2C)C3(C)C)[nH]c2nccc(F)c12` [MPL-174, 4-fluoro-3-methyl-N-[(1S,2S,3S,5R)-2,6,6-trimethylnorpinan-3-yl]-1H-pyrrolo[2,3-b]pyridine-2-carboxamide] was tested, and the MIC was 0.19 µg/mL (≈ 0.577 µM).
